The text below walks through data of patent US9296759B2, “Amino-oxazine and amino-dihydrothiazine compounds as beta-secretase modulators and methods of use” (AMGEN INC., priority 2011, dated 2016).

Bounds are passed on as bounds.

The test system of test [1] is Aβ40 in conditioned medium of cells stably expressing Amyloid Precursor Protein (APP). Kind of test: In vitro BACE cell-based assay (HEK cell assay, Aβ40 sandwich ELISA). As to conditions: Homo sapiens, HEK293; average IC50, Aβ40, 24 h incubation. As to the method: In Vitro BACE Cell-Based Assay
The cell-based assay measures inhibition or reduction of Aβ40 in conditioned medium of test compound treated cells expressing amyloid precursor protein.
Cells stably expressing Amyloid Precursor Protein (APP) were plated at a density of 40K cells/well in 96 well plates (Costar). The cells were cultivated for 24 hours at 37° C. and 5% CO2 in DMEM supplemented with 10% FBS. The test compounds were then added to cells in 10-point dose response concentrations with the starting concentration being either 100 μM or 10 μM. The compounds were diluted from stock solutions in DMSO and the final DMSO concentration of the test compounds on cells was 0.1%. After 24 h of incubation with the test compounds the supernatant conditioned media was collected and the Aβ 40 levels were determined using a sandwich ELISA. The IC50 of the compound was calculated from the percent of control or percent inhibition of Aβ 40 as a function of the concentration of the test compound.
The sandwich ELISA to detect Aβ 40 was performed in 96 well microtiter plates, which were pre-treated with goat anti-rabbit IgG (Pierce). The capture and detecting antibody pair that were used to detect Aβ 40 from cell supernatants were affinity purified pAb40 (Biosource) and biotinylated 6E10 (Signet Labs Inc.), respectively. The optimal concentration for the pAb40 antibody was 3 μg/ml in Superblock/TBS (Pierce) that was supplemented with 0.05% Tween 20 (Sigma).
Cellular supernatants were incubated with the capture antibody for 3 h at 4° C., followed by 3 wash steps in TBS-tween (0.05%). The detecting antibody incubation was for 2 h at 4° C., again followed by the wash steps as described previously. The final readout of the ELISA is Time-Resolved Fluorescence (counts per minute) using Delfia reagents Streptavidin-Europium and Enhancement solutions (Perkin Elmer) and the Victor 2 multilabel counter (Perkin Elmer).
Background: ELISA stands for enzyme-linked immunosorbent assay.

A further test concerns the target Cathepsin D (Homo sapiens (Human), UniProt P07339). As to the kind of experiment: In vitro enzymatic Cat D (Cathepsin D) FRET assay. It is filed as biochemical. To be noted: average IC50. On the procedure: In Vitro Enzymatic Cat D (Cathepsin D) FRET (Fluorescence Resonance Energy Transfer) Assay
Recombinant CathepsinD was expressed in CHO cells. The assay buffer for CathepsinD is 0.05 M citrate pH 3.5, 10% DMSO final, 5 mM CHAPS. […] The assays are effectively started by the addition of different FRET substrates (20 nM for CathepsinD) and the combination is incubated for one hour. The FRET assay is terminated with by addition of Tris buffer, which raises the pH to neutrality, and the fluorescence is determined. The FRET substrate is a peptide with commercially available fluorophore and quencher, on opposite sides of the BACE cleavage site. […] Proteolytic cleavage of the FRET substrate releases quenching of fluorescence (CathepsinD excitation 500 nm and emission 580 nm).

Test [2] concerns the target BACE 1 (beta secretase enzyme) (Homo sapiens (Human), UniProt P56817). Kind of test: In vitro enzymatic BACE FRET assay. As to conditions: average IC50. The test is classed as biochemical. On the procedure: In Vitro Enzymatic BACE FRET (Fluorescence Resonance Energy Transfer) Assay
The assay buffer used in this screen is 0.05 M acetate, pH 4.2, 10% DMSO final, 100 uM genapol (which is a nonionic detergent, below its Critical Micelle Concentration). […] This assay is effectively started by the addition of FRET substrate (50 nM) and the combination is incubated for one hour. The FRET assay is terminated with by addition of Tris buffer, which raises the pH to neutrality, and the fluorescence is determined. The FRET substrate is a peptide with commercially available fluorophore and quencher, on opposite sides of the BACE cleavage site. Proteolytic cleavage of the FRET substrate releases quenching of fluorescence (excitation […] and […]).

Cathepsin D, sequence (P07339 65-412, species assumed): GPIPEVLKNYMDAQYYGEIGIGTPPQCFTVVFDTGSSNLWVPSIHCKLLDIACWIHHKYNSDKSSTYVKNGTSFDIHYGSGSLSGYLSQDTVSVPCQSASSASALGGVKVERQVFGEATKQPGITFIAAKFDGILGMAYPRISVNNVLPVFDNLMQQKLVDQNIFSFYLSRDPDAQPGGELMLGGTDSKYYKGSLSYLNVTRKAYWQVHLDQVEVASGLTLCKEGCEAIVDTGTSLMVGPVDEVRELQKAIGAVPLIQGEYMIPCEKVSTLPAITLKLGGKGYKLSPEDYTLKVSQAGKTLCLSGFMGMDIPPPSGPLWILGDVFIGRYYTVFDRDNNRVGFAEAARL
BACE 1 (beta secretase enzyme), sequence (P56817 46-501): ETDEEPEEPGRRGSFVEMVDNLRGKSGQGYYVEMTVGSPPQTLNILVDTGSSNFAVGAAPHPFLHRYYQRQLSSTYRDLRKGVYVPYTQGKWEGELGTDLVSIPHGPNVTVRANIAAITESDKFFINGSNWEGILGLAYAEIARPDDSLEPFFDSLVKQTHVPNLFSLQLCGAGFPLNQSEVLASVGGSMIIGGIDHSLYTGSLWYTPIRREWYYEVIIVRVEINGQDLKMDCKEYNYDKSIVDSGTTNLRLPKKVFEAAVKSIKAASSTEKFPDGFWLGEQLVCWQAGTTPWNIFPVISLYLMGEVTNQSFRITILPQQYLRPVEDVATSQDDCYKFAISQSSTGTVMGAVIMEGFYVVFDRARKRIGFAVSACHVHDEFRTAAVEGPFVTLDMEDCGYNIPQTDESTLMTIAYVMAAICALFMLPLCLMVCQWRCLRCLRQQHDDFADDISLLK

Regarding `COc1cc(F)c2c(c1)[C@]1(CCSC(N)=N1)c1cc(NC(=O)c3ccc(Cl)cn3)ccc1O2` [Example 32, N-((4S)-2-amino-5′-fluoro-7′-methoxy-5,6-dihydrospiro[1,3-thiazine-4,9′-xanthen]-2′-yl)-5-chloro-2-pyridinecarboxamide], the results for the IC50 (in test [1]; on Cathepsin D) were 31.8 nM and 350000 nM, respectively. In the same order, the values of `NC1=N[C@@]2(CCO1)c1cc(NC(=O)c3ccc(Cl)cn3)ccc1Oc1c2cc(Cl)nc1F` [Example 38, N-((5S)-2′-amino-3-chloro-1-fluoro-5′,6′-dihydrospiro[chromeno[2,3-c]pyridine-5,4′-[1,3]oxazin]-7-yl)-5-chloro-2-pyridinecarboxamide] are 31 nM and more than 400000 nM. As to `Cc1cccnc1Nc1ccc2c(c1)[C@@]1(CCOC(N)=N1)c1cc(Cl)nc(F)c1O2` [Example 41, (5S)-3-chloro-1-fluoro-N~7~-(3-methyl-2-pyridinyl)-5′,6′-dihydrospiro[chromeno[2,3-c]pyridine-5,4′-[1,3]oxazine]-2′,7-diamine], the half-maximal inhibitory concentration (IC50) (commonly the point on the concentration scale where inhibition reaches its midpoint) in test [1] was 279 nM; at Cathepsin D, 386000 nM. On to `COc1cc(F)c2c(c1)[C@]1(CCOC(N)=N1)c1cc(NC(=O)c3ccc(Cl)cn3)ccc1O2` [Example 42, N-((4S)-2-amino-5′-fluoro-7′-methoxy-5,6-dihydrospiro[1,3-oxazine-4,9′-xanthen]-2′-yl)-5-chloro-2-pyridinecarboxamide], for which the 50% inhibitory concentration (IC50) in test [1] was 20.5 nM; at Cathepsin D it was more than 400000 nM. On to `COc1cnc(C(=O)Nc2ccc3c(c2)[C@@]2(CCOC(N)=N2)c2cc(Cl)nc(F)c2O3)cn1` [Example 47, N-((5S)-2′-amino-3-chloro-1-fluoro-5′,6′-dihydrospiro[chromeno[2,3-c]pyridine-5,4′-[1,3]oxazin]-7-yl)-5-methoxy-2-pyrazinecarboxamide], for which, on Cathepsin D, the half-maximal inhibitory concentration (IC50) was found to be 335000 nM.

Consider `CC#CCOc1cnc(C(=O)Nc2ccc3c(c2)[C@@]2(CCOC(N)=N2)c2cc(Cl)nc(F)c2O3)cn1` [Example 48, N-((5S)-2′-amino-3-chloro-1-fluoro-5′,6′-dihydrospiro[chromeno[2,3-c]pyridine-5,4′-[1,3]oxazin]-7-yl)-5-(2-butyn-1-yloxy)-2-pyrazinecarboxamide], for which the concentration for half-maximal inhibition (IC50) in test [1] is 0.3 nM; on Cathepsin D it was 151000 nM. In the same order, the values of `COc1cnc(C(=O)Nc2ccc3c(c2)[C@@]2(CCOC(N)=N2)c2cc(C4CCOCC4)cc(F)c2O3)cn1` [Example 61, N-((4S)-2-amino-5′-fluoro-7′-(tetrahydro-2H-pyran-4-yl)-5,6-dihydrospiro[1,3-oxazine-4,9′-xanthen]-2′-yl)-5-methoxy-2-pyrazinecarboxamide] are 7.8 nM and 379000 nM. Take `N#Cc1ccc(C(=O)Nc2ccc3c(c2)[C@@]2(CCOC(N)=N2)c2cc(C4=CCOCC4)nc(F)c2O3)nc1` [Example 64, N-((5S)-2′-amino-3-(3,6-dihydro-2H-pyran-4-yl)-1-fluoro-5′,6′-dihydrospiro[chromeno[2,3-c]pyridine-5,4′-[1,3]oxazin]-7-yl)-5-cyano-2-pyridinecarboxamide]: the figures for the half-maximal inhibitory concentration (IC50) in test [1] and in test [2] were 0.039 nM and 0.74 nM, respectively. Turning to `COc1cc(F)c2c(c1)[C@]1(CCOC(N)=N1)c1cc(NC(=O)c3cnc(OC)cn3)ccc1O2` [Example 75, N-((4S)-2-amino-5′-fluoro-7′-methoxy-5,6-dihydrospiro[1,3-oxazine-4,9′-xanthen]-2′-yl)-5-methoxy-2-pyrazinecarboxamide], the IC50 came to 27 nM in test [1] and 400000 nM at Cathepsin D.

Take `COc1ccc(C(=O)Nc2ccc3c(c2)[C@@]2(CCOC(N)=N2)c2cc(OC)cc(F)c2O3)c(F)c1` [Example 77, N-((4S)-2-amino-5′-fluoro-7′-methoxy-5,6-dihydrospiro[1,3-oxazine-4,9′-xanthen]-2′-yl)-2-fluoro-4-methoxybenzamide]: the results for the IC50 (in test [1]; at Cathepsin D) were 181 nM and 331000 nM, respectively. As to `Cc1nc(C(=O)Nc2ccc3c(c2)[C@@]2(CCOC(N)=N2)c2cc(C4=CCCOC4)nc(F)c2O3)cs1` [Example 85, N-((5S)-2′-amino-3-(5,6-dihydro-2H-pyran-3-yl)-1-fluoro-5′,6′-dihydrospiro[chromeno[2,3-c]pyridine-5,4′-[1,3]oxazin]-7-yl)-2-methyl-1,3-thiazole-4-carboxamide], the concentration for half-maximal inhibition (IC50) in test [1] was determined as 0.08 nM; in test [2] it was 0.9 nM. In the case of `NC1=N[C@@]2(CCO1)c1cc(NC(=O)c3ccc(Cl)cn3)ccc1Oc1ncc(-c3ccnc(F)c3)cc12` [Example 90, N-((5S)-2′-amino-3-(2-fluoro-4-pyridinyl)-5′,6′-dihydrospiro[chromeno[2,3-b]pyridine-5,4′-[1,3]oxazin]-7-yl)-5-chloro-2-pyridinecarboxamide], the results for the half-inhibitory concentration (IC50) (in test [1]; on Cathepsin D) were 0.7 nM and 401000 nM, respectively. With `NC1=N[C@@]2(CCO1)c1cc(NC(=O)c3ccc(Cl)cn3)ccc1Oc1c2cc(-c2ccnc(F)c2)nc1F` [Example 91, N-((5S)-2′-amino-1-fluoro-3-(2-fluoro-4-pyridinyl)-5′,6′-dihydrospiro[chromeno[2,3-c]pyridine-5,4′-[1,3]oxazin]-7-yl)-5-chloro-2-pyridinecarboxamide], the half-maximal inhibitory concentration (IC50) in test [1] is 0.4 nM; at Cathepsin D, 400000 nM. As to `COc1nc(C2=CCOCC2)cc2c1Oc1ccc(NC(=O)c3ccc(F)cn3)cc1[C@@]21CCOC(N)=N1` [Example 96, N-((5S)-2′-amino-3-(3,6-dihydro-2H-pyran-4-yl)-1-methoxy-5′,6′-dihydrospiro[chromeno[2,3-c]pyridine-5,4′-[1,3]oxazin]-7-yl)-5-fluoro-2-pyridinecarboxamide], the IC50 in test [1] turned out to be 8.8 nM.

For `COc1ccc(C(=O)Nc2ccc3c(c2)[C@@]2(CCOC(N)=N2)c2cc(-c4ccnc(F)c4)nc(F)c2O3)nc1` [Example 98, N-((5S)-2′-amino-1-fluoro-3-(2-fluoro-4-pyridinyl)-5′,6′-dihydrospiro[chromeno[2,3-c]pyridine-5,4′-[1,3]oxazin]-7-yl)-5-methoxy-2-pyridinecarboxamide], the 50% inhibitory concentration (IC50) on Cathepsin D was 400000 nM. Consider `Cc1nc(C(=O)Nc2ccc3c(c2)[C@@]2(CCOC(N)=N2)c2cc(-c4ccnc(F)c4)nc(F)c2O3)cs1` [Example 99, N-((5S)-2′-amino-1-fluoro-3-(2-fluoro-4-pyridinyl)-5′,6′-dihydrospiro[chromeno[2,3-c]pyridine-5,4′-[1,3]oxazin]-7-yl)-2-methyl-1,3-thiazole-4-carboxamide], for which the half-maximal inhibitory concentration (IC50) in test [1] turned out to be 0.4 nM; in test [2] it was 0.8 nM. On to `NC1=N[C@@]2(CCO1)c1cc(NC(=O)c3ccc(F)cn3)ccc1Oc1c(F)cc(-c3ccnc(F)c3)cc12` [Example 102, N-((4S)-2-amino-5′-fluoro-7′-(2-fluoro-4-pyridinyl)-5,6-dihydrospiro[1,3-oxazine-4,9′-xanthen]-2′-yl)-5-fluoro-2-pyridinecarboxamide], for which the IC50 in test [1] stood at 5.7 nM. Take `N#Cc1ccc(C(=O)Nc2ccc3c(c2)[C@@]2(CCOC(N)=N2)c2cc(-c4ccnc(F)c4)cc(F)c2O3)nc1` [Example 108, N-((4S)-2-amino-5′-fluoro-7′-(2-fluoro-4-pyridinyl)-5,6-dihydrospiro[1,3-oxazine-4,9′-xanthen]-2′-yl)-5-cyano-2-pyridinecarboxamide]: the half-maximal inhibitory concentration (IC50) in test [1] turned out to be 0.5 nM; at Cathepsin D it was 400000 nM.
